Experimental data: PubChem BioAssay AID844 (SRMLSC, 2007)
The source made the active and inactive calls. How the calls were made is not given here.

Tested on: MRP1 cells, doxorubicin viability shift, 10 uM compound
Experiment: viability protection against doxorubicin, MRP-1 line – cell-based, doxorubicin EC50 shift, dose response (AID 844)
Details: for EC50: measured here: doxorubicin EC50 with compound

| SMILES | fold increase in Dox EC50 | EC50 [µM] |
| --- | --- | --- |
| Cc1ccc(CC2S/C(=C(/C#N)C(=O)N3CCOCC3)N(c3ccccc3)C2=O)cc1 (configuration not stated) | 1.18 (inactive) | 6.38 |
| COC(=O)CCc1c(C)[nH]c(C(=O)OCc2ccccc2)c1C | 0.85 (inactive) | 4.57 |
| CC(C)CNC(=O)c1c(N)n(/N=C/c2ccccn2)c2nc3ccccc3nc12 | 0.94 (inactive) | 5.08 |
| CC(C)c1ccc(CNc2cc(N3CCCC3)ccc2[N+](=O)[O-])cc1 | 0.81 (inactive) | 4.36 |
| Cc1ccc(N/N=C(\C#N)C(N)=S)c(C)c1 | 0.6 (inactive) | 3.25 |
| COc1ccc(NC(=O)C(=O)N/N=C/c2cc(C)n(-c3cccc(Cl)c3Cl)c2C)c(OC)c1 | 1.43 (inactive) | 7.74 |
| O=C(CSc1ncn[nH]1)NC12CC3CC(CC(C3)C1)C2 | 0.64 (inactive) | 3.43 |
| Cc1cc(NC(=O)CN2C(=O)S/C(=C\c3ccccc3)C2=O)no1 | 1.03 (inactive) | 5.58 |
| Cn1c(N)c(C(=O)COC(=O)c2cc(C3CC3)nc3ccccc23)c(=O)n(Cc2ccccc2)c1=O | 0.94 (inactive) | 5.07 |
| CCOc1ccc(-c2nc(C#N)c(N3CCCCCC3)o2)cc1 | 0.56 (inactive) | 3.04 |
| O=C(N/N=C/c1ccc(-c2ccc([N+](=O)[O-])cc2)o1)C(O)c1ccccc1 (configuration not stated) | 0.74 (inactive) | 3.97 |
| CCCCOc1ccc(/C=C/C(=O)Nc2ccc([N+](=O)[O-])cc2C)cc1 | 1.17 (inactive) | 6.3 |
| O=C1/C(=C\c2ccco2)SC(=S)N1c1ccc(O)cc1 | 0.34 (inactive) | 1.84 |
| Cc1cc(/C=C2\NC(=O)N(Cc3ccc(Cl)cc3)C2=O)c(C)n1C | 1.1 (inactive) | 5.93 |
| CCN(CC)CCN(Cc1cc2cc(C)cc(C)c2[nH]c1=O)C(=S)NCc1ccco1 | 0.19 (inactive) | 1.03 |
| CCOC(=O)c1ccccc1NC(=O)C1COc2ccccc2O1 (configuration not stated) | 0.42 (inactive) | 2.28 |
| COc1cc(NS(=O)(=O)c2ccc(C)cc2)ccc1-n1cnnn1 | 1.02 (inactive) | 5.51 |
| Cc1ccc(N2C(=O)C3C(c4ccccc4)(C2=O)C3(c2ccccc2)c2ccccc2)cc1 (configuration not stated) | 0.22 (inactive) | 1.16 |
| CC(=O)N1CCN=C1SCc1ccc(Br)cc1 | 0.97 (inactive) | 5.26 |
| Cc1nc2c(ccc3nc(NC(=O)C(c4ccccc4)c4ccccc4)sc32)s1 | 0.84 (inactive) | 4.51 |
| Cc1cccc(NC(=O)CSc2nc(-c3ccccc3)c(C#N)c(=O)[nH]2)c1C | 1.24 (inactive) | 6.71 |
| CC(C)(C)NC(NC(=O)Cc1ccccc1)C(Cl)(Cl)Cl (configuration not stated) | 1.07 (inactive) | 5.77 |
| Cc1ccc(C(=O)COc2ccccc2-c2ccccc2)cc1C | 0.9 (inactive) | 4.85 |
| O=C(COC(=O)c1c(Cl)cccc1Cl)Nc1cc(Cl)ccc1Oc1ccccc1 | 0.36 (inactive) | 1.97 |
| Cn1c(=O)c2c(nc(OCc3ccccc3)n2C)n(C)c1=O | 0.7 (inactive) | 3.78 |
| Cc1nc(=O)c(-c2ccccc2)c(C)n1-c1ccc(S(N)(=O)=O)cc1 | 1.53 | 8.25 |

| SMILES | fold increase in Dox EC50 | EC50 [µM] |
| --- | --- | --- |
| C/C(=N\NC(=O)c1cccc(S(=O)(=O)Nc2cccc(Cl)c2)c1)c1cccs1 | 0.65 (inactive) | 3.49 |
| O=C(/C(=C/O)N=Nc1ccccc1)c1ccncc1 | 1.4 (inactive) | 7.54 |
| COc1ccc(NC(=O)CC2C(=O)N(c3ccc(F)cc3)C(=S)N2NC(=O)c2ccccc2)cc1 (configuration not stated) | 0.79 (inactive) | 4.29 |
| O=C1C(Cc2cccc([N+](=O)[O-])c2)SC(=Nc2ccccc2)N1c1ccccc1 (configuration not stated) | 0.73 (inactive) | 3.94 |
| CCc1nnc(NC(=O)c2ccc(S(=O)(=O)N(CC)CC)cc2)s1 | 0.69 (inactive) | 3.73 |
| CC(NC(=O)c1ccc(Br)cc1)c1ccc2c(c1)CCCC2 (configuration not stated) | 1.36 (inactive) | 7.33 |
| Cc1nnc(NC(=O)C(C)Sc2nncn2C)s1 (configuration not stated) | 0.77 (inactive) | 4.15 |
| CCCCc1ccc(-c2nc(-c3ccncc3)no2)cc1 | 0.76 (inactive) | 4.09 |
| Cc1nnc(NC(=O)c2ccccc2Br)s1 | 1.05 (inactive) | 5.69 |
| O=C(Cc1ccccc1)Nc1ccccc1Oc1ccccc1 | 0.69 (inactive) | 3.71 |
| Cc1cc(C(=O)Nc2nnc(C(F)(F)F)s2)no1 | 1.51 | 8.14 |
| CCc1c(C)sc(NC(=O)c2cc(CC(C)C)on2)c1C#N | 0.64 (inactive) | 3.45 |
| O=C(COc1ccc(Cl)cc1)N1CCN(S(=O)(=O)c2ccccc2)CC1 | 0.68 (inactive) | 3.68 |
| Cc1c(N2C(=O)/C(=C/c3ccccc3)SC2=S)c(=O)n(-c2ccccc2)n1C | 0.58 (inactive) | 3.15 |
| COc1cccc(/C=N/NC(=O)C(C)n2nc(C)c([N+](=O)[O-])c2C)c1O (configuration not stated) | 0.33 (inactive) | 1.77 |
| Cc1noc(/C=C/N(C)C)c1S(=O)(=O)N1CCCC(C(=O)NCc2ccccc2Cl)C1 (configuration not stated) | 0.82 (inactive) | 4.42 |
| Cc1ccc(NC(=O)CSc2nc(O)cc(=O)n2C)cc1 | 1.34 (inactive) | 7.25 |
| COC(=O)CC1SC(=O)NC1=O (configuration not stated) | 0.9 (inactive) | 4.84 |
| Cc1nc2ccccc2c(=O)n1/N=C/c1c(O)ccc2oc3c(c12)CCCC3 | 0.28 (inactive) | 1.5 |
| O=C(OC1CCc2ccccc2C1=O)c1ccccc1O (configuration not stated) | 0.69 (inactive) | 3.73 |
| COc1ccc(NC(=O)CC2C(=O)N(c3ccc(Cl)cc3)C(=S)N2NC(=O)c2cccc(F)c2)cc1 (configuration not stated) | 0.67 (inactive) | 3.59 |
| CCc1nnc(NC(=O)C2CCCN2S(=O)(=O)c2ccccc2)s1 (configuration not stated) | 1.46 (inactive) | 7.89 |
| Nc1nc2n(n1)C(c1cccs1)CC(c1ccc(Br)cc1)N2 (configuration not stated) | 0.91 (inactive) | 4.93 |
| CCOC(=O)c1c(NC(=O)CSc2ncn[nH]2)sc(C)c1C | 0.32 (inactive) | 1.74 |
| CCOc1ccc(Cn2nnc(C(=O)NCCc3ccccc3)c2N)cc1 | 1.05 (inactive) | 5.65 |
| Cc1cc(C)n(-c2nc3ccccc3nc2Nc2ccc3c(c2)OCO3)n1 | 0.75 (inactive) | 4.02 |

| SMILES | fold increase in Dox EC50 | EC50 [µM] |
| --- | --- | --- |
| COc1ccc(Cc2nnc(NC(=O)c3c(-c4ccccc4)noc3C)s2)cc1OC | 0.52 (inactive) | 2.79 |
| C=C(C)C(=O)NC1=NN(c2ccccc2)C(=O)C1 | 1.04 (inactive) | 5.63 |
| CCOC(=O)c1csc(NC(=O)c2ccccc2)n1 | 0.86 (inactive) | 4.65 |
| O=C1Nc2ccccc2CCC1Sc1nnc(-c2ccc(Cl)cc2)s1 (configuration not stated) | 1.32 (inactive) | 7.13 |
| COc1ccc(NC(=O)c2oc3ccccc3c2NC(=O)c2ccc3c(c2)OCO3)cc1 | 0.44 (inactive) | 2.4 |
| CCc1nnc(NC(=O)C2COc3ccccc3O2)s1 (configuration not stated) | 1.1 (inactive) | 5.95 |
| Cc1onc(-c2c(F)cccc2Cl)c1C(=O)Nc1sc2c(c1C#N)CCC(C(C)(C)C)C2 (configuration not stated) | 0.48 (inactive) | 2.61 |
| CCOC(=O)Cc1csc(NC(=S)NC(=O)C(C)(C)C)n1 | 1.2 (inactive) | 6.45 |
| CN(Cc1ccccc1)c1ncnc2c1cnn2-c1ccccc1 | 0.54 (inactive) | 2.94 |
| Cc1ccc(C(=O)Nc2nnc(C)s2)o1 | 1.32 (inactive) | 7.14 |
| O=C1CSC(=S)N1N=C1CCCCCC1 | 0.92 (inactive) | 4.99 |
| Cc1ccc(NC(=O)CSc2nnc(C)n2-c2ccccc2)cc1 | 1.61 | 8.71 |
| Cc1ccc(C(=O)CSc2n[nH]c(-c3ccco3)n2)cc1C | 0.74 (inactive) | 3.97 |
| Cc1ccc(CN2C(=O)NC(=O)C3(Cc4c(nc5ccccn5c4=O)N4CCCCCC43)C2=O)cc1 (configuration not stated) | 1.02 (inactive) | 5.51 |
| Cc1c(OCC(=O)OC(C)(C)C)ccc2c3c(c(=O)oc12)CCC3 | 1.04 (inactive) | 5.59 |
| COc1ccc(Cc2nnc(N/N=C/c3ccc(O)cc3O)[nH]c2=O)cc1OC | 0.15 (inactive) | 0.836 |
| COc1ccc(-n2ncc3c(=O)n(CC(=O)N4c5ccccc5CC4C)cnc32)cc1 (configuration not stated) | 0.82 (inactive) | 4.44 |
| Cc1cc(C(=O)N/N=C/c2cc([N+](=O)[O-])cc(C)c2O)n[nH]1 | 0.53 (inactive) | 2.87 |
| Cc1ccc(/C=C2\SC(=S)N(CCCC(=O)Nc3ccccn3)C2=O)cc1 | 0.82 (inactive) | 4.44 |
| COc1ccc(C(=O)Nc2ccc(S(=O)(=O)Nc3nccnc3OC)cc2)cc1 | 1.12 (inactive) | 6.04 |
| COc1cccc(/C=N/NC(=O)C(=O)NCc2ccco2)c1O | 0.65 (inactive) | 3.54 |
| O=c1nc2s/c(=C\c3ccc(-c4ccccc4[N+](=O)[O-])o3)c(=O)n2nc1-c1ccccc1 | 1.43 (inactive) | 7.73 |
| COc1ccc(CNc2nc3c(c(=O)n(Cc4ccc(Br)cc4)c(=O)n3C)n2C)cc1 | 0.95 (inactive) | 5.13 |
| CC(=O)N1CCN=C1SCc1ccccc1F | 0.78 (inactive) | 4.2 |
